Experiments:
[1] = RP, Waters ACQUITY UPLC BEH C18, 100 × 1 mm, 1.7 µm, 50 °C, 0.3 mL/min, estimated dead time 0.17 min; A: water + 10 mM ammonium bicarbonate; B: 10% water + 90% methanol + 10 mM ammonium bicarbonate; gradient (min/%B) 0/0 15/100 21/100 22/0 30/0; conditions: stereoisomer not certain
[2] = RP, Waters ACQUITY UPLC BEH C18, 100 × 1 mm, 1.7 µm, 50 °C, 0.3 mL/min, estimated dead time 0.17 min; A: water + 0.1% formic acid + 20 mM ammonium formate; B: methanol + 0.1% formic acid + 20 mM ammonium formate; gradient (min/%B) 0/0 15/100 21/100 22/0 30/0; conditions: stereoisomer not certain

O=P(O)(Oc1ccccc1)Oc1ccccc1 [Diphenylphosphate]
LC retention time [1]: 10.9 min | LC retention time [2]: 11 min

O=C(Oc1ccccc1)c1ccccc1C(=O)Oc1ccccc1 [Diphenylphthalate]
LC retention time [1]: 16 min | LC retention time [2]: 15.7 min

O=c1[nH]c2ccccc2n1CCCN1CCC(n2c(=O)[nH]c3cc(Cl)ccc32)CC1 [Domperidone]
LC retention time [1]: 14.8 min | LC retention time [2]: 10.7 min

NCCc1ccc(O)c(O)c1 [Dopamine]
LC retention time [1]: 6.92 min | LC retention time [2]: 6.88 min

COc1cc2nc(N3CCN(C(=O)C4COc5ccccc5O4)CC3)nc(N)c2cc1OC (configuration not stated) [Doxazosin]
LC retention time [1]: 14 min | LC retention time [2]: 11.6 min

CN(C)CCOC(C)(c1ccccc1)c1ccccn1 (configuration not stated) [Doxylamine]
LC retention time [1]: 14 min | LC retention time [2]: 8.49 min

OCC(O)CN1CCN(c2ccccc2)CC1 (configuration not stated) [Dropropizine]
LC retention time [1]: 10.7 min | LC retention time [2]: 6.44 min

CC12CCC(=O)C=C1C1CC1C1C2CCC2(C)C1C1CC1C21CCC(=O)O1 (configuration not stated) [Drospirenone]
LC retention time [1]: 14.5 min | LC retention time [2]: 14.2 min

CNCCC(Oc1cccc2ccccc12)c1cccs1 (configuration not stated) [Duloxetine]
LC retention time [1]: 15.4 min | LC retention time [2]: 13.2 min

CC(C)(C)c1ccc(C(=O)CCCN2CCC(OC(c3ccccc3)c3ccccc3)CC2)cc1 [Ebastin]
LC retention time [1]: 18.8 min | LC retention time [2]: 15.9 min

CC=C(C)C(=O)OC1CCN2CC=C(COC(=O)C(O)(C(C)O)C(C)(C)O)C12 (configuration not stated) [Echimidine]
LC retention time [1]: 13.2 min | LC retention time [2]: 9.4 min

O=C1Nc2ccc(Cl)cc2C(C#CC2CC2)(C(F)(F)F)O1 (configuration not stated) [Efavirenz]
LC retention time [1]: 15.8 min | LC retention time [2]: 15.5 min

CCC(C)C1OC2(C=CC1C)CC1CC(CC=C(C)C(OC3CC(OC)C(OC4CC(OC)C(NC)C(C)O4)C(C)O3)C(C)C=CC=C3COC4C(O)C(C)=CC(C(=O)O1)C34O)O2 (configuration not stated) [Emamectin B1a]
LC retention time [1]: 18.6 min | LC retention time [2]: 17.1 min

Nc1nc(=O)n(C2CSC(CO)O2)cc1F (configuration not stated) [Emtricitabine]
LC retention time [1]: 5.99 min | LC retention time [2]: 5.75 min

CCOC(=O)C(CCc1ccccc1)NC(C)C(=O)N1CCCC1C(=O)O (configuration not stated) [Enalapril]
LC retention time [1]: 12.2 min | LC retention time [2]: 11.7 min

CCN1CCN(c2cc3c(cc2F)c(=O)c(C(=O)O)cn3C2CC2)CC1 [Enrofloxacin]
LC retention time [1]: 11.4 min | LC retention time [2]: 8.5 min

CCC(C)C1OC2(C=CC1C)CC1CC(CC=C(C)C(OC3CC(OC)C(OC4CC(OC)C(NC(C)=O)C(C)O4)C(C)O3)C(C)C=CC=C3COC4C(O)C(C)=CC(C(=O)O1)C34O)O2 (configuration not stated) [Eprinomectin B1a]
LC retention time [1]: 18.3 min | LC retention time [2]: 17.9 min

CC=C1CC2(CO)OC2(C)C(=O)OCC2=CC[N+]3([O-])CCC(OC1=O)C23 (configuration not stated) [Erucifoline N-oxide]
LC retention time [1]: 6.82 min | LC retention time [2]: 6.51 min

CC=C1CC2(CO)OC2(C)C(=O)OCC2=CCN3CCC(OC1=O)C23 (configuration not stated) [Erucifoline]
LC retention time [1]: 10.2 min | LC retention time [2]: 6 min

CCC1OC(=O)C(C)C(OC2CC(C)(OC)C(O)C(C)O2)C(C)C(OC2OC(C)CC(N(C)C)C2O)C(C)(O)CC(C)C(=O)C(C)C(O)C1(C)O (configuration not stated) [Erythromycin]
LC retention time [1]: 15.9 min | LC retention time [2]: 13.2 min

CCC1COC(Cn2cncn2)(c2ccc(Cl)cc2Cl)O1 (configuration not stated) [Etaconazole]
LC retention time [1]: 15.4 min | LC retention time [2]: 15 min

CCS(=O)(=O)c1nnc(N(C)C(=O)NC)s1 [Ethidimuron]
LC retention time [1]: 8.81 min | LC retention time [2]: 8.76 min

CCOC(=O)c1ccc(N(C)C)cc1 [Ethyl-4-dimethylaminobenzoate]
LC retention time [1]: 14.6 min | LC retention time [2]: 14.3 min

CCOc1ccc(C(C)(C)COCc2cccc(Oc3ccccc3)c2)cc1 [Etofenprox]
LC retention time [1]: 14.1 min | LC retention time [2]: 13.8 min

CCOc1cc(C(C)(C)C)ccc1C1COC(c2c(F)cccc2F)=N1 (configuration not stated) [Etoxazole]
LC retention time [1]: 17.8 min | LC retention time [2]: 17.4 min

COC(C)C(O)(C(=O)OCC1=CC[N+]2([O-])CCC(O)C12)C(C)(C)O (configuration not stated) [Europine N-oxide]
LC retention time [1]: 7.37 min | LC retention time [2]: 6.99 min

COC(C)C(O)(C(=O)OCC1=CCN2CCC(O)C12)C(C)(C)O (configuration not stated) [Europine]
LC retention time [1]: 9.86 min | LC retention time [2]: 6.72 min

C=C1CC2C(CCC3(C)C(=O)CCC23)C2(C)C=CC(=O)C=C12 (configuration not stated) [Exemestane]
LC retention time [1]: 14.3 min | LC retention time [2]: 14 min

CCOP(=O)(NC(C)C)Oc1ccc(S(C)(=O)=O)c(C)c1 (configuration not stated) [Fenamiphos-sulfone]
LC retention time [1]: 12.4 min | LC retention time [2]: 12.2 min

CC(C)OC(=O)C(C)(C)Oc1ccc(C(=O)c2ccc(Cl)cc2)cc1 [Fenofibrate]
LC retention time [1]: 17.3 min | LC retention time [2]: 17 min

CCOC(=O)NCCOc1ccc(Oc2ccccc2)cc1 [Fenoxycarb]
LC retention time [1]: 15.6 min | LC retention time [2]: 15.3 min

— the RepoRT retention time repository (doi:10.1021/acs.analchem.1c00972)
